Measurements reported in paper PMC8037182, “Solvothermal Synthesis of Multiple Dihydropyrimidinones at a Time as Inhibitors of Eg5” (Molecules, 2021).

Columns and labels:
[1] = tested on: T24 cell line; assay: Cytotoxicity MTS assay, T24 cell line; type: cell-based; conditions: for OD490 Mean / OD490 Well 1 / OD490 Well 2 / OD490 Well 3: T24 cell line
Description: (§1) The positive compounds (IC50 < 100 μM) obtained from the primary Eg5 motor protein ATPase assay were tested for antiproliferative activity in vitro against Caco-2 cell line, Hela cell line, L929 cell line and T24 cell line by performing MTS assay. Cells were introduced into 96-well plates at a density of 1000 cells per well. After 24 h incubation, the cells were exposed with compounds at final concentrations ranging from 0.5 to 100 µM for 24 h. DMSO was used at a final concentration of 0.025% as blank control, monastrol was used as the positive control. Then 20 µL (CellTiter 96® AQueous One Solution Promega, Madison, WI, USA) reagent was added in each well. After 2 h at 37 °C in a 80% humidified, 5% CO2 atmosphere, the absorbance at 490 nm was recorded using a microplate reader (BIO-RAD iMark^TM). The results were obtained in three independent duplicate experiments. The primary data were shown in Supplementary Materials Tables S4–S7. The IC50 values for these compounds were calculated from a non-linear regression graph plotted between the percentage of cell viability and concentration with SPSS17.0 software.

[2] = tested on: L929 cell line; assay: Cytotoxicity MTS assay, L929 cell line; type: cell-based; conditions: for OD490 values, Mean / OD490 values, Well 1 / OD490 values, Well 2 / OD490 values, Well 3: L929 cell line
Description: as §1

CCOc1ccccc1C1NC(=S)NC(C)=C1C(=O)Nc1ccc(Cl)cc1 (centres unmarked) [C9]
IC50 ([1]; Homo sapiens, T-24, MTS assay, 24 h exposure): 103 µM
OD490 Mean ([1]; 0.5μM, first assay): 1.7287
OD490 Well 1 ([1]; 0.5μM, first assay): 1.7105
OD490 Well 2 ([1]; 0.5μM, first assay): 1.7618
OD490 Well 3 ([1]; 0.5μM, first assay): 1.7137
OD490 Mean ([1]; 0.5μM, second assay): 1.6993
OD490 Well 1 ([1]; 0.5μM, second assay): 1.7012
OD490 Well 2 ([1]; 0.5μM, second assay): 1.6854
OD490 Well 3 ([1]; 0.5μM, second assay): 1.7112
OD490 Mean ([1]; 0.5μM, third assay): 1.6796
OD490 Well 1 ([1]; 0.5μM, third assay): 1.7151
OD490 Well 2 ([1]; 0.5μM, third assay): 1.6985
OD490 Well 3 ([1]; 0.5μM, third assay): 1.6252
OD490 Mean ([1]; 1μM, first assay): 1.7475
OD490 Well 1 ([1]; 1μM, first assay): 1.7891
OD490 Well 2 ([1]; 1μM, first assay): 1.7321
OD490 Well 3 ([1]; 1μM, first assay): 1.7213
OD490 Mean ([1]; 1μM, second assay): 1.6914
OD490 Well 1 ([1]; 1μM, second assay): 1.6854
OD490 Well 2 ([1]; 1μM, second assay): 1.6687
OD490 Well 3 ([1]; 1μM, second assay): 1.7201
OD490 Mean ([1]; 1μM, third assay): 1.6844
OD490 Well 1 ([1]; 1μM, third assay): 1.6654
OD490 Well 2 ([1]; 1μM, third assay): 1.6854
OD490 Well 3 ([1]; 1μM, third assay): 1.7023
OD490 Mean ([1]; 10μM, first assay): 1.7610
OD490 Well 1 ([1]; 10μM, first assay): 1.7529
OD490 Well 2 ([1]; 10μM, first assay): 1.7204
OD490 Well 3 ([1]; 10μM, first assay): 1.8096
OD490 Mean ([1]; 10μM, second assay): 1.6914
OD490 Well 1 ([1]; 10μM, second assay): 1.6952
OD490 Well 2 ([1]; 10μM, second assay): 1.7032
OD490 Well 3 ([1]; 10μM, second assay): 1.6758
OD490 Mean ([1]; 10μM, third assay): 1.6899
OD490 Well 1 ([1]; 10μM, third assay): 1.6523
OD490 Well 2 ([1]; 10μM, third assay): 1.6854
OD490 Well 3 ([1]; 10μM, third assay): 1.7320
OD490 Mean ([1]; 25μM, first assay): 1.6722
OD490 Well 1 ([1]; 25μM, first assay): 1.6737
OD490 Well 2 ([1]; 25μM, first assay): 1.6555
OD490 Well 3 ([1]; 25μM, first assay): 1.6875
OD490 Mean ([1]; 25μM, second assay): 1.5562
OD490 Well 1 ([1]; 25μM, second assay): 1.5784
OD490 Well 2 ([1]; 25μM, second assay): 1.5687
OD490 Well 3 ([1]; 25μM, second assay): 1.5214
OD490 Mean ([1]; 25μM, third assay): 1.5261
OD490 Well 1 ([1]; 25μM, third assay): 1.5255
OD490 Well 2 ([1]; 25μM, third assay): 1.4895
OD490 Well 3 ([1]; 25μM, third assay): 1.5632
OD490 Mean ([1]; 50μM, first assay): 1.4241
OD490 Well 1 ([1]; 50μM, first assay): 1.3950
OD490 Well 2 ([1]; 50μM, first assay): 1.4682
OD490 Well 3 ([1]; 50μM, first assay): 1.4091
OD490 Mean ([1]; 50μM, second assay): 1.2984
OD490 Well 1 ([1]; 50μM, second assay): 1.3242
OD490 Well 2 ([1]; 50μM, second assay): 1.3021
OD490 Well 3 ([1]; 50μM, second assay): 1.2688
OD490 Mean ([1]; 50μM, third assay): 1.2717
OD490 Well 1 ([1]; 50μM, third assay): 1.2854
OD490 Well 2 ([1]; 50μM, third assay): 1.2312
OD490 Well 3 ([1]; 50μM, third assay): 1.2985
OD490 Mean ([1]; 100μM, first assay): 1.1300
OD490 Well 1 ([1]; 100μM, first assay): 1.1347
OD490 Well 2 ([1]; 100μM, first assay): 1.0869
OD490 Well 3 ([1]; 100μM, first assay): 1.1684
OD490 Mean ([1]; 100μM, second assay): 1.0488
OD490 Well 1 ([1]; 100μM, second assay): 1.1133
OD490 Well 2 ([1]; 100μM, second assay): 1.0101
OD490 Well 3 ([1]; 100μM, second assay): 1.0230
OD490 Mean ([1]; 100μM, third assay): 1.0526
OD490 Well 1 ([1]; 100μM, third assay): 1.0120
OD490 Well 2 ([1]; 100μM, third assay): 1.1123
OD490 Well 3 ([1]; 100μM, third assay): 1.0334
OD490 values, Mean ([2]; 0.5μM, first assay): 1.3120
OD490 values, Well 1 ([2]; 0.5μM, first assay): 1.2051
OD490 values, Well 2 ([2]; 0.5μM, first assay): 1.4334
OD490 values, Well 3 ([2]; 0.5μM, first assay): 1.2976
OD490 values, Mean ([2]; 0.5μM, second assay): 1.7414
OD490 values, Well 1 ([2]; 0.5μM, second assay): 1.7956
OD490 values, Well 2 ([2]; 0.5μM, second assay): 1.7365
OD490 values, Well 3 ([2]; 0.5μM, second assay): 1.6920
OD490 values, Mean ([2]; 0.5μM, third assay): 1.5324
OD490 values, Well 1 ([2]; 0.5μM, third assay): 1.5628
OD490 values, Well 2 ([2]; 0.5μM, third assay): 1.4792
OD490 values, Well 3 ([2]; 0.5μM, third assay): 1.5552
OD490 values, Mean ([2]; 1μM, first assay): 1.2882
OD490 values, Well 1 ([2]; 1μM, first assay): 1.1921
OD490 values, Well 2 ([2]; 1μM, first assay): 1.2906
OD490 values, Well 3 ([2]; 1μM, first assay): 1.3820
OD490 values, Mean ([2]; 1μM, second assay): 1.7491
OD490 values, Well 1 ([2]; 1μM, second assay): 1.7526
OD490 values, Well 2 ([2]; 1μM, second assay): 1.7963
OD490 values, Well 3 ([2]; 1μM, second assay): 1.6985
OD490 values, Mean ([2]; 1μM, third assay): 1.5501
OD490 values, Well 1 ([2]; 1μM, third assay): 1.5147
OD490 values, Well 2 ([2]; 1μM, third assay): 1.6354
OD490 values, Well 3 ([2]; 1μM, third assay): 1.5001
OD490 values, Mean ([2]; 10μM, first assay): 1.2539
OD490 values, Well 1 ([2]; 10μM, first assay): 1.1842
OD490 values, Well 2 ([2]; 10μM, first assay): 1.1521
OD490 values, Well 3 ([2]; 10μM, first assay): 1.4254
OD490 values, Mean ([2]; 10μM, second assay): 1.6826
OD490 values, Well 1 ([2]; 10μM, second assay): 1.6658
OD490 values, Well 2 ([2]; 10μM, second assay): 1.5966
OD490 values, Well 3 ([2]; 10μM, second assay): 1.7854
OD490 values, Mean ([2]; 10μM, third assay): 1.5957
OD490 values, Well 1 ([2]; 10μM, third assay): 1.5987
OD490 values, Well 2 ([2]; 10μM, third assay): 1.6038
OD490 values, Well 3 ([2]; 10μM, third assay): 1.5847
OD490 values, Mean ([2]; 25μM, first assay): 1.1905
OD490 values, Well 1 ([2]; 25μM, first assay): 1.1608
OD490 values, Well 2 ([2]; 25μM, first assay): 1.2406
OD490 values, Well 3 ([2]; 25μM, first assay): 1.1701
OD490 values, Mean ([2]; 25μM, second assay): 1.4962
OD490 values, Well 1 ([2]; 25μM, second assay): 1.4563
OD490 values, Well 2 ([2]; 25μM, second assay): 1.5624
OD490 values, Well 3 ([2]; 25μM, second assay): 1.4698
OD490 values, Mean ([2]; 25μM, third assay): 1.3392
OD490 values, Well 1 ([2]; 25μM, third assay): 1.3256
OD490 values, Well 2 ([2]; 25μM, third assay): 1.3332
OD490 values, Well 3 ([2]; 25μM, third assay): 1.3587
OD490 values, Mean ([2]; 50μM, first assay): 1.0589
OD490 values, Well 1 ([2]; 50μM, first assay): 1.0389
OD490 values, Well 2 ([2]; 50μM, first assay): 1.0906
OD490 values, Well 3 ([2]; 50μM, first assay): 1.0471
OD490 values, Mean ([2]; 50μM, second assay): 1.2280
OD490 values, Well 1 ([2]; 50μM, second assay): 1.2236
OD490 values, Well 2 ([2]; 50μM, second assay): 1.2635
OD490 values, Well 3 ([2]; 50μM, second assay): 1.1968
OD490 values, Mean ([2]; 50μM, third assay): 1.1793
OD490 values, Well 1 ([2]; 50μM, third assay): 1.1416
OD490 values, Well 2 ([2]; 50μM, third assay): 1.2010
OD490 values, Well 3 ([2]; 50μM, third assay): 1.1952
OD490 values, Mean ([2]; 100μM, first assay): 0.6738
OD490 values, Well 1 ([2]; 100μM, first assay): 0.6518
OD490 values, Well 2 ([2]; 100μM, first assay): 0.6916
OD490 values, Well 3 ([2]; 100μM, first assay): 0.6781
OD490 values, Mean ([2]; 100μM, second assay): 0.7959
OD490 values, Well 1 ([2]; 100μM, second assay): 0.7856
OD490 values, Well 2 ([2]; 100μM, second assay): 0.7958
OD490 values, Well 3 ([2]; 100μM, second assay): 0.8062
OD490 values, Mean ([2]; 100μM, third assay): 0.7698
OD490 values, Well 1 ([2]; 100μM, third assay): 0.8020
OD490 values, Well 2 ([2]; 100μM, third assay): 0.7321
OD490 values, Well 3 ([2]; 100μM, third assay): 0.7754
IC50 ([2]; Mus musculus, L929, MTS assay, 24 h exposure, ordinary fibroblast, not cancer cells): 86 µM
